Results taken from ChEMBL document CHEMBL5465560, “Selectivity Literature for EUbOPEN Chemogenomic Library” (2024).

How the values were obtained:
[1] = molecular target: T1, Myotonin-protein kinase (Homo sapiens) (UniProt Q09013); experiment: Selectivity interaction (KinomeScan (DiscoverX)) EUB0001049a DMPK; settings: at 1 µM
T1 sequence (whole entry): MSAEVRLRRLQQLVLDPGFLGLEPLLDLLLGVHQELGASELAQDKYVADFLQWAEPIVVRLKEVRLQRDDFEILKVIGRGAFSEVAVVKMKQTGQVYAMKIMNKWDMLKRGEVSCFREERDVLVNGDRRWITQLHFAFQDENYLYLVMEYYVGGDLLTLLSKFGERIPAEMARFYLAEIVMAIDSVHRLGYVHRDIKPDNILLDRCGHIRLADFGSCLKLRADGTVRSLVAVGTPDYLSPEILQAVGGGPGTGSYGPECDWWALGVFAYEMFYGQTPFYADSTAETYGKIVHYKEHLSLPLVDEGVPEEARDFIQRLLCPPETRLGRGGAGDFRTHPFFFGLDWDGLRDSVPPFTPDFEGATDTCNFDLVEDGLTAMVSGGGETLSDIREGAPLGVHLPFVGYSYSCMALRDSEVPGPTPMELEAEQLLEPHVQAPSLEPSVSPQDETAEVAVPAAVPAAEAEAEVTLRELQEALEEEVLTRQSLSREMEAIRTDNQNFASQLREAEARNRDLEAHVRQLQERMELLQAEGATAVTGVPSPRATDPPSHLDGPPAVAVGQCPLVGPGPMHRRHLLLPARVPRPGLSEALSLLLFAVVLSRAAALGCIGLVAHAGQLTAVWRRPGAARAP

[2] = molecular target: Phosphatidylinositol 4-phosphate 3-kinase C2 domain-containing subunit beta (Homo sapiens) (UniProt O00750); experiment: Selectivity interaction (KinomeScan (DiscoverX)) EUB0000666a PIK3C2B; settings: at 10 µM
[3] = molecular target: Receptor tyrosine-protein kinase erbB-4 (Homo sapiens, UniProt Q15303); experiment: Selectivity interaction (Radiometric kinase assay (using 10 uM ATP)) EUB0000601a ERBB4
[4] = molecular target: Tyrosine-protein kinase Fes/Fps (Homo sapiens) (UniProt P07332); experiment: Selectivity interaction (KinomeScan (DiscoverX)) EUB0000229b FES; settings: at 10 µM
Sequence of Tyrosine-protein kinase Fes/Fps (Homo sapiens) (P07332 whole entry): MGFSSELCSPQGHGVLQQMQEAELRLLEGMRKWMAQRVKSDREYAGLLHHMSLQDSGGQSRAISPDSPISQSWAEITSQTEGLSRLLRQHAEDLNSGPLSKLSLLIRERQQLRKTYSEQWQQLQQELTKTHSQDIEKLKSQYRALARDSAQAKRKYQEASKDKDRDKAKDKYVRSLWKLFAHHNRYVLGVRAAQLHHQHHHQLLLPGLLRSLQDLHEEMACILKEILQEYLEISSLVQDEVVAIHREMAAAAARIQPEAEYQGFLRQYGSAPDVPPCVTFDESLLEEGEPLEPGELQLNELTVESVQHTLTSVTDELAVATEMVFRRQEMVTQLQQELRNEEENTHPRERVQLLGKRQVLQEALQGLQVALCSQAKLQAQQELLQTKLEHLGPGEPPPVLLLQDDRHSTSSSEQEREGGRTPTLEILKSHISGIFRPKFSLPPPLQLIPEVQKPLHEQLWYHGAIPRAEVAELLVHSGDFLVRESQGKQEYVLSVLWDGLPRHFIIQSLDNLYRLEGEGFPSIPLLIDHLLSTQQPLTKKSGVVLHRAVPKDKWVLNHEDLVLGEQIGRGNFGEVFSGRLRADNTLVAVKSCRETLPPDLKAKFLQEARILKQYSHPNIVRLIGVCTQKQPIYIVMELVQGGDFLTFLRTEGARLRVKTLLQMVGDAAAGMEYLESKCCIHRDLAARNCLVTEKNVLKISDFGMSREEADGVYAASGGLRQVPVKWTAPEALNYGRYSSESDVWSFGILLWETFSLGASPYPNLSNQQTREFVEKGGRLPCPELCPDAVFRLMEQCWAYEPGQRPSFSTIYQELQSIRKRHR

[5] = molecular target: Nociceptin receptor (Homo sapiens) (UniProt P41146); experiment: Selectivity interaction (Eurofins CEREP Diversity Profile (receptors and ion channels)) EUB0000279b OPRL1; settings: at 10 µM
Sequence of Nociceptin receptor (Homo sapiens) (P41146 whole entry): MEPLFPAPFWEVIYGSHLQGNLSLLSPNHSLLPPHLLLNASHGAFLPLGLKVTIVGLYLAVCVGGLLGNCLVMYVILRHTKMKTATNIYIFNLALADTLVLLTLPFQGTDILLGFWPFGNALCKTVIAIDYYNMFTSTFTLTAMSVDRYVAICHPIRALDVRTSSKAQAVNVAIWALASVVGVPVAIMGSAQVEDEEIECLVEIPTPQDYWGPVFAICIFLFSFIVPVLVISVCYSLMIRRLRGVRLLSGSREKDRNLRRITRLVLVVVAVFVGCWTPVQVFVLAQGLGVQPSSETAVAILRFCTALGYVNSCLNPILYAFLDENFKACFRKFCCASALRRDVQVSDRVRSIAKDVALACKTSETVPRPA

[6] = molecular target: Mitogen-activated protein kinase kinase kinase 4 (Homo sapiens) (UniProt Q9Y6R4); experiment: Selectivity interaction (KinomeScan (DiscoverX)) EUB0001079a MAP3K4; settings: at 1 µM
[7] = molecular target: Serine/threonine-protein kinase WNK1 (Homo sapiens) (UniProt Q9H4A3); experiment: Selectivity interaction (Kinase panel (KiNativ target engagement assay in Jurkat cells)) EUB0001635a WNK1; type: cell-based; settings: at 1 µM
Sequence of Serine/threonine-protein kinase WNK1 (Homo sapiens) (Q9H4A3 whole entry, looked up, canonical isoform): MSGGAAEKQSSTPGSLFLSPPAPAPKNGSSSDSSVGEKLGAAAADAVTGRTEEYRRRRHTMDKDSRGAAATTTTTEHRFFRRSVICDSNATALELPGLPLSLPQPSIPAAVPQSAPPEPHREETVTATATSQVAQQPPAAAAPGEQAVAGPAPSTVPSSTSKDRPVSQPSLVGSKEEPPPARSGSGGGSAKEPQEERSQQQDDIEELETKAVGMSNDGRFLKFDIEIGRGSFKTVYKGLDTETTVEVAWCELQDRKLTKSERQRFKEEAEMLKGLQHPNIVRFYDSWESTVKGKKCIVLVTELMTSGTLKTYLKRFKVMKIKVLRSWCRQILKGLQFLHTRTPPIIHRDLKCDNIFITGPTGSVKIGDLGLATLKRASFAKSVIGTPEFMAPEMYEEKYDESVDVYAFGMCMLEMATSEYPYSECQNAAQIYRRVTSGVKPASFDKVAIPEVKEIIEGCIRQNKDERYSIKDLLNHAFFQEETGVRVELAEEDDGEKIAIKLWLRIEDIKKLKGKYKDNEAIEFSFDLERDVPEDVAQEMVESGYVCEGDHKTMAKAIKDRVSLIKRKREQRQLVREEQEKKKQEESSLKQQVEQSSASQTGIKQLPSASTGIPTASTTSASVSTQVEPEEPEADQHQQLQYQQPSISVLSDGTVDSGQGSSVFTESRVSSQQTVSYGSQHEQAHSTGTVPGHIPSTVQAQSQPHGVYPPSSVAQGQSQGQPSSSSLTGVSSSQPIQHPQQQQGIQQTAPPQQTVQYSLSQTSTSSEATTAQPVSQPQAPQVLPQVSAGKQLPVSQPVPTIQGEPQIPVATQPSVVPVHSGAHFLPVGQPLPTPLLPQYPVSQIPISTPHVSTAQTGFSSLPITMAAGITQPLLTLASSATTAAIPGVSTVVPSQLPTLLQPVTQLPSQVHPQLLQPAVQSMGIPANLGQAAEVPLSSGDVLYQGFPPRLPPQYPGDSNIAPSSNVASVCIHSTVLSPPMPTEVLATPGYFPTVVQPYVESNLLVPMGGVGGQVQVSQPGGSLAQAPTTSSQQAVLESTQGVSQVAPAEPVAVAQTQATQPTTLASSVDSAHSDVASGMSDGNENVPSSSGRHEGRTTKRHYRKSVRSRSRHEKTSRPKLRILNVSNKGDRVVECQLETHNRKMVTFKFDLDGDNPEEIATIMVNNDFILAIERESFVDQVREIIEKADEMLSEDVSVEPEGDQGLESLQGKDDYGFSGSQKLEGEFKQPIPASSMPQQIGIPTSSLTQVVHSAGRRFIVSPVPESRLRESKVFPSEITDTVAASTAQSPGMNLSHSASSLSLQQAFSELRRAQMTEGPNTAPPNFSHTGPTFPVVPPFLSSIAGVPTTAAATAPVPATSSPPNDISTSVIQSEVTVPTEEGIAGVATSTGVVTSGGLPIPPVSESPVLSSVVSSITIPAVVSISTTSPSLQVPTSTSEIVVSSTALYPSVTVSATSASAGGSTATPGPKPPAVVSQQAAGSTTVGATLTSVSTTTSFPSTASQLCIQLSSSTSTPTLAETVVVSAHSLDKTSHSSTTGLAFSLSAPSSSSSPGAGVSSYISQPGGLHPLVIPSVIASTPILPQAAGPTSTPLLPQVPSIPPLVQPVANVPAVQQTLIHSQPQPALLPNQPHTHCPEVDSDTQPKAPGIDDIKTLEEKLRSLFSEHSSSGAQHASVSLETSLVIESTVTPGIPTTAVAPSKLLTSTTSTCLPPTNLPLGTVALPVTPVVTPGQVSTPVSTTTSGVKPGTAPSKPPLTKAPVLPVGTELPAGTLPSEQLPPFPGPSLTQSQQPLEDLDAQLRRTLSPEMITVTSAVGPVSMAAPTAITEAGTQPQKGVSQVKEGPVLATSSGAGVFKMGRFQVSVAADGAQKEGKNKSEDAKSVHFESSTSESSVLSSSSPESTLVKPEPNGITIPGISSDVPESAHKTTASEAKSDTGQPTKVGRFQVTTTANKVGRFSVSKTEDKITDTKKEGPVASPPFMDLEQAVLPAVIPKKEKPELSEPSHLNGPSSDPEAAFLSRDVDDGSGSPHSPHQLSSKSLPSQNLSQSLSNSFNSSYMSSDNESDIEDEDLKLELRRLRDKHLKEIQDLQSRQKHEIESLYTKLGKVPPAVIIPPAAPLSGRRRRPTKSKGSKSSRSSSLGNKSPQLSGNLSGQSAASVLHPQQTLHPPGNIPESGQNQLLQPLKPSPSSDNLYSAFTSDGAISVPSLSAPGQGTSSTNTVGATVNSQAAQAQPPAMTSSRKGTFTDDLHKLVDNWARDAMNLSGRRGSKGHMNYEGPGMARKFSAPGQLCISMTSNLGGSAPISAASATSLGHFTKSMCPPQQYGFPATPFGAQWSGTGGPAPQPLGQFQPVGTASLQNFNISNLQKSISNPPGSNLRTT

[8] = molecular target: T2, Phosphorylase b kinase gamma catalytic chain, liver/testis isoform (Homo sapiens) (UniProt P15735); settings: at 10 µM
T2 sequence (whole entry): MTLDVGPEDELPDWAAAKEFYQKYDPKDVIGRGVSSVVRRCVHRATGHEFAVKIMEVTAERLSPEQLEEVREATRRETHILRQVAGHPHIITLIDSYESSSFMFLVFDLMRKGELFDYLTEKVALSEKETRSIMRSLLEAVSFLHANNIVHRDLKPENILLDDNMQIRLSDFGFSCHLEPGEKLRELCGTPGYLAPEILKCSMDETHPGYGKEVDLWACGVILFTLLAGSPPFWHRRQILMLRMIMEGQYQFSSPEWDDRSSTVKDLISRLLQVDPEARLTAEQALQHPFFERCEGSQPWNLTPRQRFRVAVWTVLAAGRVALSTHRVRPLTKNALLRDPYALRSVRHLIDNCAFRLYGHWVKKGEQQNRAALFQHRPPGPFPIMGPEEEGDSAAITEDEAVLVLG

[9] = molecular target: Phosphatidylinositol 4-kinase beta (Homo sapiens, UniProt Q9UBF8); experiment: Selectivity interaction (ActivX KiNativ screen (kinase selectivity in THP-1 cell lysates)) EUB0000639a PI4KB; type: subcellular; settings: lysate
Sequence of Phosphatidylinositol 4-kinase beta (Q9UBF8 2-816 limits assumed): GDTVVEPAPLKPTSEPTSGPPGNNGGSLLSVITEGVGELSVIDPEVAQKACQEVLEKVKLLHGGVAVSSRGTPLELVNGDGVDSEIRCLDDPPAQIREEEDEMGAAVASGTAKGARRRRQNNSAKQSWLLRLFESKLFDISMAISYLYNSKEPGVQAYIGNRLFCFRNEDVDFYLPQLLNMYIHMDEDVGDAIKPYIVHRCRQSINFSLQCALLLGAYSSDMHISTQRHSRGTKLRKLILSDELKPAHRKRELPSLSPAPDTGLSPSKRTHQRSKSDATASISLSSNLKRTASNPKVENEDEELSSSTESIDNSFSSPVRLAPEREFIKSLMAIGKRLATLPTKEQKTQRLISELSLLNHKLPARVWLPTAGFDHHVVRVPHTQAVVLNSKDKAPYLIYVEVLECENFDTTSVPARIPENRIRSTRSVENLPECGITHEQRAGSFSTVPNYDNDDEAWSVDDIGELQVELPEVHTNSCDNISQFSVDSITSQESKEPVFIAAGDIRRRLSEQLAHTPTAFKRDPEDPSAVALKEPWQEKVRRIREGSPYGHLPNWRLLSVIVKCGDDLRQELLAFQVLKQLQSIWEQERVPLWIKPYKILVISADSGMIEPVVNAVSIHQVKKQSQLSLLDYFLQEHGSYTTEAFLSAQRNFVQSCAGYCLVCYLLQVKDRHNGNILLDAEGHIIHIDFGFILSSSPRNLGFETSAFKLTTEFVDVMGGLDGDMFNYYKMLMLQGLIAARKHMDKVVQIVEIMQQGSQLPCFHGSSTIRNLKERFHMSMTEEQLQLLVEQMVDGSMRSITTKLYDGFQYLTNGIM

[10] = molecular target: Cyclin-dependent kinase 7 (Homo sapiens, UniProt P50613); experiment: Selectivity interaction (KinomeScan (DiscoverX)) EUB0000595a CDK7; settings: at 10 µM
Sequence of Cyclin-dependent kinase 7 (P50613 whole entry): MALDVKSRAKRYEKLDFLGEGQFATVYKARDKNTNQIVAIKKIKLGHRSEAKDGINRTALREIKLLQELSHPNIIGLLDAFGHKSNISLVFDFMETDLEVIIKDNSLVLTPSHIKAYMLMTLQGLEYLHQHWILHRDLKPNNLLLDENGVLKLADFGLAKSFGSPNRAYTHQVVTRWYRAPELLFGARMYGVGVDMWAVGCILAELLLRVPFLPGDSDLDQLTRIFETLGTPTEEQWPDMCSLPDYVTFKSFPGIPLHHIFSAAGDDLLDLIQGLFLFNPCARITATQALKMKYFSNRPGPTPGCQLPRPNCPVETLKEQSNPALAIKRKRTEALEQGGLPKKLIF

[11] = molecular target: AP2-associated protein kinase 1 (Homo sapiens, UniProt Q2M2I8); experiment: Selectivity interaction (Kinase panel (DSF assay)) EUB0001489b AAK1
[12] = molecular target: Tyrosine-protein kinase SYK (Homo sapiens, UniProt P43405); experiment: Selectivity interaction (KinomeScan (DiscoverX)) EUB0000092b SYK; settings: at 10 µM
[13] = molecular target: RAC-alpha serine/threonine-protein kinase (Homo sapiens, UniProt P31749); experiment: Selectivity interaction (ActivX KiNativ screen (ex vivo kinase selectivity in human PBMCs)) EUB0001619a AKT1; type: cell-based; settings: PBMC, at 1 µM
[14] = molecular target: RAF proto-oncogene serine/threonine-protein kinase (Homo sapiens) (UniProt P04049); experiment: Selectivity interaction (KinomeScan (DiscoverX)) EUB0000695a RAF1; settings: at 100 nM
[15] = test system: Leucine-rich repeat serine/threonine-protein kinase 2 (Homo sapiens), Q5S007 [G2019S]; experiment: (§1) Selectivity interaction (Adapta Assay) EUB0001632a LRRK2; settings: at 10 µM
[16] = test system: Leucine-rich repeat serine/threonine-protein kinase 2 (Homo sapiens), Q5S007 [I2020T]; experiment: as §1; settings: at 10 µM
[17] = test system: Leucine-rich repeat serine/threonine-protein kinase 2 (Homo sapiens), Q5S007 [R1441C]; experiment: as §1; settings: at 10 µM
[18] = molecular target: Leucine-rich repeat serine/threonine-protein kinase 2 (Homo sapiens, UniProt Q5S007); experiment: as §1; settings: at 10 µM
[19] = molecular target: Serine/threonine-protein kinase tousled-like 2 (Homo sapiens) (UniProt Q86UE8); experiment: Selectivity interaction (LanthaScreen Eu Kinase Binding Assay) EUB0001632a TLK2; settings: at 10 µM

Structure (SMILES): COc1cc(Nc2nc(C)cc(-c3cnn4nc(OC)ccc34)n2)cc(C(F)(F)F)c1
- % of control [1]: 100%

Structure (SMILES): O=C(NOC[C@H](O)CO)c1ccc(F)c(F)c1Nc1ccc(I)cc1F
- % of control [2]: 100%

Structure (SMILES): CCc1cc(Nc2nccc(-c3c(-c4ccc(OC)c(C(=O)Nc5c(F)cccc5F)c4)nc4ccccn34)n2)c(OC)cc1N1CCC(N2CCN(S(C)(=O)=O)CC2)CC1
- IC50 [3]: > 250 µM

Structure (SMILES): COc1cc(N(C)c2ccnc3ccc(C(F)(F)F)cc23)cc(OC)c1OC
- % binding [4]: 100%

Structure (SMILES): CC(=O)c1cc(-c2ccccc2OCC2CC2)c2ncccn12
- % of control [5]: 88%

Structure (SMILES): Nc1cnc(N2CCc3cc(S(=O)(=O)Nc4c(F)cc(Cl)cc4F)cc(N4CCCC4=O)c32)nc1 [TP-020n]
- % of control [6]: 85%

Structure (SMILES): C=CC(=O)Nc1ccc(C(=O)Nc2[nH]nc3c2CN(C(=O)N[C@H](CN(C)C)c2ccccc2)C3(C)C)cc1
- % of engagement ([7]; Selectivity number of off-targets 0.0, Selectivity number of targets 233.0, Source Knowledge https://www.sciencedirect.com/science/article/pii/S2451945619300674?via%3Dihub): -16.3%
- % of engagement [7]: -12.9%

Structure (SMILES): CCN(CC)CCCCNc1ncc2cc(-c3cc(OC)cc(OC)c3)c(NC(=O)NC(C)(C)C)nc2n1
- % of control [8]: 100%

Structure (SMILES): CC[C@@H]1[C@H](F)C(=O)N[C@@H]1COc1nccc2cc(C(N)=O)c(OC)cc12 [ZIMLOVISERTIB]
- % of inhibition ([9]; at 0.01 µM): -20.4%
- % of inhibition ([9]; at 0.04 µM): 12.3%
- % of inhibition ([9]; at 0.2 µM): 15.1%
- % of inhibition ([9]; at 1 µM): 7.7%
- % of inhibition ([9]; at 5 µM): -1.3%

Structure (SMILES): COCC(=O)NC/C=C/c1ccc2ncnc(Nc3ccc(Oc4ccc(C)nc4)c(C)c3)c2c1 [CP-724714]
- % of control [10]: 100%

Structure (SMILES): CN1CCN(C(=O)c2ccc3cc2OCCOCCNc2ccn4ncc-3c4n2)CC1
- dTM [11]: 4.2 K

Structure (SMILES): CCC(=O)N1CCN(c2ccc(-n3c(=O)ccc4cnc5ccc(-c6cnc7ccccc7c6)cc5c43)cc2C(F)(F)F)CC1
- % of control [12]: 78%

Structure (SMILES): N#Cc1cccc(-c2c[nH]c3ncnc(N4CCOCC4)c23)c1
- % of inhibition [13]: -6%

Structure (SMILES): Cc1cc(F)c(C(=O)Nc2cccc(-c3nncn3C(C)C)n2)cc1-n1cnc(C2CC2)c1
- % of control [14]: 79%

Structure (SMILES): Cn1cc(-n2cnc3c(NCc4nc5cc(Cl)c(Cl)cc5[nH]4)nc(N4CCOCC4)nc32)cn1
- % of inhibition [15]: 23.9%
- % of inhibition [16]: 100%
- % of inhibition [17]: 96.1%
- % of inhibition [18]: 18.9%
- % of inhibition [19]: -11.9%
